# According to patent US20220340983A1, “SYSTEMS AND ASSAYS FOR IDENTIFYING PU.1 INHIBITORS” (Massachustts Institute of Technology, priority 2019, published 2022):
# Legend:
# [1] = test system: HEK293 CMV-Luciferase cells; assay: Cell viability (Hoechst staining) in HEK293 CMV-Luciferase cells
# Procedure: Assays were conducted for percent luminescence and cell viability (Hoechst-staining) after a 2-day incubation under the following conditions. As negative controls pure DMSO and “mock” conditions (where nothing is added to the cells) were used.
# [2] = test system: PU.1 dependent gene expression; assay: RT-qPCR of mRNA levels in BV2 PU.1-Luciferase cells (validation round 3); assay type: cell-based, mouse; conditions: 2-day treatment
# Procedure: The Asinex1 and ChemDiv6 libraries contain molecules with unknown biological properties, but with low toxicity, high stability, and a broad structural diversity used to generate structure-activity-relationships (SAR) of the PU.1 inhibitors. […] In order to obtain the SAR, three rounds of validation were performed. In round 1, false-positive, non-specific luciferase quencher molecules were excluded using the commercially available HEK293 CMV-Luciferase line that constitutively expresses luciferase under the CMV promoter. In round 2, weak (non-significant) hits were eliminated according to degree of PU.1 inhibition in the absence of cell death. In round 3, drugs were selected that reduce PU.1-dependent gene expression with RT-qPCR.
# PU.1 = molecular target: T1, PU.1 (Mus musculus, UniProt P17433); assay: Luciferase assay (luminescence) in BV2 PU.1-Luciferase reporter cells; assay type: cell-based; conditions: luminescence reduction in BV2 PU.1-Luciferase cells, concentration-response, Hill's equation
# T1 construct: endogenous in cells; host or cells: BV2 PU.1-Luciferase (mouse microglial BV2 with a 5xLBB-luciferase reporter integrated at ROSA26)
# Source text: PU.1 belongs to a group of transcription factors that all bind to the middle 5′-GGAA-3′ sequence. The flanking A/T rich sequence is crucial for conferring PU.1 selective binding. The flanking sequence requires unique structural properties of PU.1 and can therefore be targeted by drugs acting as allosteric inhibitors that prevent PU.1 from binding to the LBB. In order to achieve robust PU.1 binding, five tandem copies of the LBBs (5×LBB) were inserted into the luciferase promoter of the pGL4.23 plasmid. The region containing the five LBBs (5×LBB) was then subcloned into the pROSA26-1 plasmid (together with a PGKneo bpA plasmid for Neomycin/G418 resistance) that allows stable integration in chromosome 6 of the immortalized mouse microglial BV2 cell line (FIG. 2B). The stable cell line was created by selection with G418.
# The BV2 PU.1-Luciferase cells (referred to as “cells” from here onward) were plated into a 384-well plate, using an automatic dispenser, 2000 cells per well in 30 μL of media composed of RPMI (Sigma-Aldrich), 10% FBS, 1% PenStrep (50 mg/mL) and 1% G418 (50 mg/mL) was plated. A robotic arm was used to transfer compounds in a 384-well format using a pin array into the plate containing the cells (here, 33 nL was transferred from a drug library containing 10 mM concentration of drugs for a final concentration of 10 μM per well). For reproducibility, each pin array with 384 compounds was added to 4 plates of cells. […] Subsequently, automatic of 30 μL of BrightGlo (Promega) was dispensed into 2 of the 4 plates, in order to lyse the cells and drive the luminescence reaction whereafter the luminescence intensity was measured by a plate reader (Perkin Elmer EnVision). The two other plates were fixed by automatically dispensing 30 μL of 10% formaldehyde with 2μL Hoechst per 1 mL formaldehyde which were left at room temperature for one hour, followed by plate reading (Acumen (TTPLabTech)). A compound transfer and treatment would be repeated if reproducibility between the luminescence plates and/or the fixed Hoechst plates was lacking. The drugs were selected and ranked according to the criteria described in FIG. 13. Luminescence values used were corrected for crosstalk. Hoechst values were total fluorescence area per well. Determination of a positive hit considered both the reduction of luminescence as well as a possible confounding reduction in cell viability. The formula used was y=(value−meanvalue)/stddev. […] Compounds were excluded if cell viability was reduced >2 standard deviations from the mean, using the same formula. The positive hits were then validated in multiple steps in order to identify true PU.1 inhibitors.
# The degree of luminescence reduction of the hits was plotted with significant effective area under the curve in order to obtain an IC50.
Compound,"cell viability (Hoechst) (FIG. 2D) ([1]; HEK293 CMV-Luciferase cell line, 1 μM)","cell viability (Hoechst-staining) ([1]; HEK293 CMV-Luciferase line, 2-day incubation, actinomycin D, puromycin, 119113 10 μM, DB2313 2.5 μM)",mRNA levels Apoe [2],mRNA levels IL1β [2],mRNA levels Lucif. [2],mRNA levels Spi1 [2],mRNA levels Trem2 [2],mRNA levels Tyrobp [2],IC50 (PU.1)
COc1ccc(C[C@H](N)C(=O)N[C@H]2[C@@H](O)[C@H](n3cnc4c(N(C)C)ncnc43)O[C@@H]2CO)cc1 [puromycin],ineffective,resistant,–,–,–,–,–,–,–
Cc1ccccc1NC(=O)C(C)Sc1nc2ccccc2c(=O)n1C (stereo not shown) [Compound D04],–,–,0.841 multiples of 1×,0.866 multiples of 1×,0.519 multiples of 1×,0.865 multiples of 1×,0.976 multiples of 1×,1.071 multiples of 1×,477 nM
CC(C)c1ccc(NC(=O)Cn2c(=O)oc3cc(S(=O)(=O)N4CCCC4)ccc32)cc1 [Compound 2A9],–,–,0.988 multiples of 1×,1.048 multiples of 1×,0.391 multiples of 1×,1.073 multiples of 1×,0.958 multiples of 1×,1.059 multiples of 1×,2570 nM
Cc1ccc(-c2nc3cc(C(C)C)ccc3o2)cc1NC(=O)c1cc([N+](=O)[O-])ccc1N1CCOCC1 [Compound 1C4],–,–,0.883 multiples of 1×,0.813 multiples of 1×,0.290 multiples of 1×,1.142 multiples of 1×,0.928 multiples of 1×,1.197 multiples of 1×,2430 nM
CCCCN(C)C(=O)C1CCCN(c2ncnc3onc(C)c23)C1 (stereo not shown) [Compound 2D5],–,–,1.400 multiples of 1×,0.287 multiples of 1×,0.359 multiples of 1×,1.015 multiples of 1×,1.852 multiples of 1×,2.257 multiples of 1×,2620 nM
"C[C@@H]1C[C@H]2[C@@H]3CCC4=CC(=O)C=C[C@]4(C)[C@@]3(Cl)[C@@H](O)C[C@]2(C)[C@@]1(O)C(=O)CCl [Mometasone, reference compound]",–,–,1.444 multiples of 1×,0.531 multiples of 1×,0.520 multiples of 1×,1.016 multiples of 1×,1.051 multiples of 1×,1.343 multiples of 1×,3 nM
CCOc1ccc(-c2nc(CSCC(=O)NCc3ccc(C)cc3)c(C)o2)cc1 [Compound 2H2],–,–,1.739 multiples of 1×,0.706 multiples of 1×,0.299 multiples of 1×,1.251 multiples of 1×,1.668 multiples of 1×,1.952 multiples of 1×,380 nM
COc1cccc2cc(C(=O)Nc3ccc(N4CCNCC4)cc3)c(=O)oc12 [Compound D10],–,–,1.251 multiples of 1×,1.347 multiples of 1×,0.622 multiples of 1×,1.072 multiples of 1×,1.342 multiples of 1×,1.593 multiples of 1×,258 nM
Cc1c(Cl)cccc1-n1ncc(C(=O)Nc2ccc3c(c2)OCCO3)c1C1CCN(C(=O)OC(C)(C)C)CC1 [Compound 2D3],–,–,0.980 multiples of 1×,0.960 multiples of 1×,0.480 multiples of 1×,0.922 multiples of 1×,0.987 multiples of 1×,0.950 multiples of 1×,2650 nM
CCCC(=O)Nc1nnc(SCc2cc(=O)c3ccc(C)cc3[nH]2)s1 [Compound 2E6],–,–,1.170 multiples of 1×,0.810 multiples of 1×,0.379 multiples of 1×,1.046 multiples of 1×,1.262 multiples of 1×,1.347 multiples of 1×,1620 nM
Cc1nc(-c2ccc(S(=O)(=O)Nc3ccc(C)c(N(C)C)c3)cc2)co1 [Compound 2F3],–,–,1.011 multiples of 1×,0.386 multiples of 1×,0.496 multiples of 1×,0.733 multiples of 1×,0.790 multiples of 1×,0.854 multiples of 1×,2290 nM
Cc1c(Cl)ccc2sc(N3CCN(C(=O)CCS(=O)(=O)c4ccc(F)cc4)CC3)nc12 [Compound 2F9],–,–,0.928 multiples of 1×,0.821 multiples of 1×,0.655 multiples of 1×,1.020 multiples of 1×,0.890 multiples of 1×,0.904 multiples of 1×,1330 nM
